Laboratory results from patent US20080194456A1, “Compositions And Methods Related To An Intestinal Inflammation And Uses Therefor” (The General Hospital Corporation, priority 2004, published 2008).

Columns and labels:
[1] = tested on: NOD2 mRNA expression in SW480 cells; experiment: Northern blot analysis of NOD2 mRNA expression in SW480 cells; type: cell-based, human
Description: FIGS. 8A-8D are photographs of Northern blots showing the effect of cytokines on Nod2 mRNA expression in SW480 cells. FIG. 8A is a Northern blot analysis of Nod2 mRNA expression in SW480 cells treated with 10 ng/ml of IFNγ, TNFα, IL-1β, IL-4 and TGFβ for six hours. As a positive control for CARD15/NOD2, human PBMC was used. […] In each of FIGS. 8A-8C, expression of Nod2 is shown relative to GAPDH expression.
Regulation of NOD2 expression had not been previously characterized. In order to better understand how NOD2 expression might vary in the context of mucosal inflammation, the effects of cytokines on epithelial NOD2 expression were studied using the SW480 cell line.

[2] = tested on: grim-19 mRNA in Caco-2 cells; experiment: Real time RT-PCR of grim-19 mRNA in Caco-2 cells; type: cell-based, human; details: for grim-19 mRNA levels: Caco-2 cells harboring plasmid encoding siRNA
Description: Total RNA of IEC lines were extracted using Trizol (INVITROGEN) according to the manufacturer's instructions. For reverse transcription, 2 μg of total RNA was transcribed with RT PCR reagents provided in the SUPERSCRIPT FIRST-STRAND SYNTHESIS SYSTEM (INVITROGEN). Real time RT-PCR was performed in an ABI Prism 7000 Sequence Detector using SYBR Green JumpStart™ detection system. Briefly, 50 ng of the reversed transcribed cDNA were used for each PCR reaction with 200 nM of forward and reverse primers. Primers used for PCR had the following sequences: Forward 5-[…]-3, Reverse 5-[…]-3 (GRIM-19, 194 bp); Forward 5-[…]-3, Feverse 5-[…]-3 (glyceraldehyde-3-phosphate dehydrogenase [GAPDH], 440 bp). The following PCR program was used: 50° C. for 2 minutes, then 95° C. for 10 minutes followed by 40 cycles of 95° C. for 15 seconds, 60° C. for 15 seconds and 72° C. for 15 seconds. The threshold cycle (CT) values were obtained for the reactions reflecting quantity of the template in the sample. GRIM-19 Delta CT (ΔCT) was calculated by subtracting the GAPDH CT value from the GRIM-19 CT value and thus, represented the relative quantity of the target molecule after normalizing with the internal standard GAPDH. The GRIM-19 ΔCT values of Caco-2 cells infected with Salmonella, or transfected with pcDNA4/HisMAX-GRIM 19 were expressed as the percentage of GRIM-19 ΔCT values of control Caco-2 cells.

S. typhimurium [3] = details: for percentage of intracellular bacteria: transfected Caco-2 cells, two hour infection at MOI=10, one hour gentamicin, relative to untransfected Caco-2 cells = 100%, mean ±SEM
[4] = tested on: NOD1 mRNA expression in SW480 cells; experiment: Northern blot analysis of NOD1 mRNA expression in SW480 cells treated with cytokines; type: cell-based, human; details: 10 ng/ml cytokine for six hours, Northern blot relative to GAPDH
Description: FIGS. 3A, B, C, D, E, and F are photographs showing Northern blots. […] Cells were treated with IFNγ for six hours. […] Cells were treated with 100 ng/ml IFNγ.
Regulation of NOD1 expression had not been described previously. […] The effect of IFNγ on NOD1 mRNA expression is time and concentration dependent manner as assessed by Northern blot analysis (FIG. 3C-3E).

Caco-2 cells = Caco-2 cells transfected (overexpression), adenylate kinase release
S. typhimurium [5] = experiment: Bacterial invasion assay in HEK293 cells; type: cell-based, Salmonella enterica serovar Typhimurium; details: MDP-LD stimulated, two hour infection at MOI=10, compared to untransfected HEK293
Description: (§1) FIGS. 19A and 19B are graphs showing that GRIM-19 acts downstream of NOD2 and is required from NF-κB activation. […] NF-κB activity was determined in the absence or presence of 1 μg of MDP-LD. grim-19 mRNA level was measured by RT-PCR using specific primers. […] After a two hour period of infection with S. typhimurium at MOI=10, invasive bacteria were quantified as described above. * p<0.05
Invasion assays were performed with Salmonella enterica serovar Typhimurium or Escherichia coli TOP10 (Invitrogen). Cell monolayers were seeded in 24-well tissue culture plate with 10^5 cells/well and incubated for 20 hours. Monolayers were then infected in 1 ml of cell culture medium without antibiotic and with heat-inactivated FCS at a multiplicity of infection (MOI) of 10 bacteria per epithelial cell. After a two hour incubation period at 37° C., the monolayers were washed two times with PBS. Fresh cell culture medium containing 100 μg/ml of gentamicin (Sigma) was then added for one hour to kill any extracellular bacteria. The epithelial cells were then lysed with 1% Triton X-100 in deionized water. Samples of cell lysates were diluted and plated onto Luria-Bertani agar plates to determine the number of colony forming units (cfu), which corresponds to the number of intracellular bacteria.

[6] = tested on: NOD2 protein in SW480 cells; experiment: Western blot of NOD2 protein in SW480 cells; type: cell-based, human; details: TNFα stimulation, time-dependent
From the text: FIGS. 9A-9D depict NOD2 protein and its expression in SW480 cells. FIG. 9A is a schematic diagram showing the location of polypeptide sequences of NOD2 for immunization. FIGS. 9B, 9C, and 9D are photographs of Western blots. […] Untransfected COS7 cells were used as a negative control. […] Transiently transfected COS7 cells were immunoprecipitated with affinity purified (a.p.) anti-NOD2 antiserum (HM2559 a.p.), then immunoblotted with affinity purified biotinylated anti-NOD2 antiserum (b-HM2563 a.p.). […] As a positive control for NOD2 protein, lysates of COS7 cells transfected with pCMV FLAG-NOD2 was used.
Previous reported efforts had not been successful in detecting active NOD2 protein in vitro or in vivo. To detect the expression of active CARD15/NOD2 protein, anti-NOD2 sera (FIG. 9A) were generated. […] Increased production of TNFα has been noted in the mucosa of patients with Crohn's disease.

[7] = tested on: grim-19 mRNA in HEK293 cells; experiment: RT-PCR of grim-19 mRNA in HEK293 cells; type: cell-based, human; details: HEK293 cells transfected with NOD2 and siRNA
Description: as §1
Total RNA of IEC lines were extracted using Trizol (INVITROGEN) according to the manufacturer's instructions. For reverse transcription, 2 μg of total RNA was transcribed with RT PCR reagents provided in the SUPERSCRIPT FIRST-STRAND SYNTHESIS SYSTEM (INVITROGEN). Real time RT-PCR was performed in an ABI Prism 7000 Sequence Detector using SYBR Green JumpStart™ detection system. […] The threshold cycle (CT) values were obtained for the reactions reflecting quantity of the template in the sample. GRIM-19 Delta CT (ΔCT) was calculated by subtracting the GAPDH CT value from the GRIM-19 CT value and thus, represented the relative quantity of the target molecule after normalizing with the internal standard GAPDH. The GRIM-19 ΔCT values of Caco-2 cells infected with Salmonella, or transfected with pcDNA4/HisMAX-GRIM 19 were expressed as the percentage of GRIM-19 ΔCT values of control Caco-2 cells.

[8] = tested on: NOD2 mediated NF-κB activation; experiment: NF-κB activation assay (luciferase reporter) in HEK293 cells; type: cell-based, human; details: HEK293 transfected with NOD2, 1 μg MDP-LD stimulation; relative to HEK293 transfected only with NOD2 or with pSUPER control vector
Description: as §1
HEK293 cells were transfected overnight with 1 ng of NOD2, 10 ng of grim-19 siRNA plus 1 ng of pIV luciferase reporter plasmid and renilla plasmid. At the same time, 1 μg of MDP-LD (Sigma) was added. After twenty-four hours, luciferase activity was measured using the Dual-Luciferase Reporter Assay System (Promega, Madison, Wis.) according to the manufacturer's instructions and normalized relative to renilla activity.

[9] = tested on: NOD1 protein in SW480 cells; experiment: Immunoprecipitation / Western blot of NOD1 protein in SW480 cells; type: cell-based, human; details: 100 ng/ml IFNγ, 6-48 hours, immunoprecipitation and immunoblot
From the text: FIGS. 4A and 4B are photographs of Western blots. […] Anti-HA monoclonal antibody and biotinylated anti-CARD4/NOD1 antiserum (HM3847) detected NOD1 protein in COS7 cells transiently transfected with pCl CARD4-HA. […] Lysates from COS7 cells transiently transfected with pCl CARD4-HA were used as positive control.
To investigate the expression of NOD1 protein, anti-NOD1 sera were generated. The specificity and the sensitivity were confirmed using lysates from COS7 cells transiently transfected with the HA tagged CARD4 expression plasmid, pCl CARD4-HA (FIG. 4A). Consistent with the regulation of mRNA expression, NOD1 protein was also augmented in SW480 cells by IFNγ stimulation (FIG. 4B).

human NOD1 promoter = experiment: NOD1 promoter luciferase reporter assay in SW480 cells; type: cell-based; details: SW480 cells transfected with pGL-2128, 100 ng/ml IFNγ for sixteen hours
Description: FIGS. 5A-5D are panels showing that IFNγ activated the human NOD1 promoter. FIG. 5A is a schematic diagram depicting the CARD4/NOD1 gene. Three IRF-1 binding motifs (IRF-1A, IRF-1B, and IRF-1C) are indicated as black boxes (▪). FIG. 5B is a schematic diagram depicting pGL Nod 1-luciferase deletion mutants. FIGS. 5C and 5D are graphs showing luciferase activity in SW480 cells were transiently transfected with 500 ng/well of the indicated expression plasmid. Ten hours after transfection, cells were cultured for a further sixteen hours with 100 ng/ml of IFNγ and then luciferase activity was measured. Black bars indicate the presence of IFNγ. White bars indicate the control conditions.
To identify the transcriptional regulation of NOD1, a series of luciferase reporter vectors was constructed, containing up to 2,128 base pairs corresponding to the DNA sequence upstream of base 1 and extending 21 base pairs into the first exon of NOD1 (FIGS. 5A and 5B). Luciferase activity in SW480 cells transfected with a vector containing the entire 2,128 base pairs upstream DNA (pGL-2128) was 125±16 fold higher than that obtained with the empty pGL3 basic vector.

C[C@@H]1C[C@@H]([C@H](O)CC2CC(=O)NC(=O)C2)C(=O)[C@@H](C)C1 [Cycloheximide]
second peak of NOD2 mRNA expression (at twenty-four hours) ([1]; SW480 cells stimulated with 10 ng/ml TNFα): inhibited

IFN-α
grim-19 mRNA expression ([2]; Caco-2 cells stimulated with RA, IFN-α or both, real time RT-PCR): did not show increased GRIM-19 expression
percentage of intracellular bacteria / invasive ability of S. typhimurium (S. typhimurium [3]; Caco-2 cells stimulated with RA, IFN-α or both, two hour incubation): remained the same

IL-β: cytokine as printed in b202; figure legend b47 names IL-1β
NOD1 mRNA expression [4]: did not affect

NOD2: NOD2 protein expressed from Flag-tagged mammalian expression vector pCMVFlag-NOD2
cell death (Caco-2 cells): did not induce cell death
invasive ability of S. typhimurium (S. typhimurium [5]): decreased

TGFβ
NOD1 mRNA expression [4]: did not affect

TNFα
NOD2 protein [6]: upregulated
NOD2 mRNA expression ([1]; SW480 cells, TNFα, concentration and time-dependent): up-regulated

grim-19 control siRNA: grim-19 control siRNA (sequence 2, atcgaggacttcgaggctc), which did not affect grim-19 mRNA (guide ATCGAGGACTTCGAGGCTC; chemistry not given here) [reference compound]
grim-19 mRNA level [7]: did not knockdown
NF-κB activation [8]: no significant effect
grim-19 mRNA levels [2]: did not affect
percentage of intracellular bacteria (S. typhimurium [3]): not observed

grim-19 siRNA-1: siRNA expressed from pSUPER vector, 19-residue sequence 1-gtgtgggatactgcgagta specific to human grim-19 cDNA (guide GTGTGGGATACTGCGAGTA; expressed from pSUPER vector)
grim-19 mRNA level [7]: significantly decreased
NF-κB activation [8]: 50%
invasive ability of S. typhimurium (S. typhimurium [5]): reversed
grim-19 mRNA levels [2]: significantly decreased
invasive ability of S. typhimurium in stimulated Caco-2 cells (S. typhimurium [3]; Caco-2 cells stimulated with RA and IFN-α, compared with non-stimulated cells): restored
percentage of intracellular bacteria (S. typhimurium [3]): 162.0%±43.8%

B1: IL-4: cytokine added to SW480 cells (protein, UniProt P05112 25-153, looked up)
Interleukin-4: HKCDITLQEIIKTLNSLTEQKTLCTELTVTDIFAASKNTTEKETFCRAATVLRQFYSHHEKDTRCLGATAQQFHRHKQLIRFLKRLDRNLWGLAGLNSCPVKEANQSTLENFLERLKTIMREKYSKCSS
NOD1 mRNA expression [4]: did not affect

B2: IFNγ: cytokine interferon gamma added to SW480 cells (protein, UniProt P01579 24-161, looked up)
Interferon gamma: QDPYVKEAENLKKYFNAGHSDVADNGTLFLGILKNWKEESDRKIMQSQIVSFYFKLFKNFKDDQSIQKSVETIKEDMNVKFFNSNKKKRDDFEKLTNYSVTDLNVQRKAIHELIQVMAELSPAAKTGKRKRSQMLFRG
NOD1 protein [9]: augmented
NOD1 mRNA expression [4]: augmented
increase of luciferase activity (human NOD1 promoter): 80%

B3: TNFβ: cytokine as printed in b202; figure legend b47 names TNFα (protein, UniProt P01374 35-205, looked up)
Lymphotoxin-alpha: LPGVGLTPSAAQTARQHPKMHLAHSTLKPAAHLIGDPSKQNSLLWRANTDRAFLQDGFSLSNNSLLVPTSGIYFVYSQVVFSGKAYSPKATSSPLYLAHEVQLFSSQYPFHVPLLSSQKMVYPGLQEPWLHSMYHGAAFQLTQGDQLSTHTDGIPHLVLSPSTVFFGAFAL
NOD1 mRNA expression [4]: did not affect
